Experiments:
Human red blood cells = assay: CAP-e bioassay (cellular antioxidant protection assay of red blood cells); format: cell-based; details: AAPH-induced oxidative damage, FIGS. 3-5
Description: Cellular antioxidant protection (CAP-e) assay of red blood cells was used to evaluate the capacity of antioxidant complexes to protect cells from oxidative stress after the antioxidant complexes enter the cells.
Human red blood cells were treated for 20 minutes using the antioxidant complex serially diluted in physiological saline. During this incubation period, the antioxidant complexes that may pass through a cell membrane may enter the cells. After exposure of the red blood cells to the antioxidant complex which was tested twice for each dose of the antioxidant complex, the red blood cells were washed twice with PBS to remove the antioxidant complex that was not absorbed by the cells.
The red blood cells were loaded with an indicator dye DCF-DA that becomes fluorescent when oxidized, and then a peroxyl free radical generator AAPH was added thereto to induce oxidative damage to the cells. A relative fluorescence intensity of each cell culture was measured at 488 nanometers using a Tecan Spectrafluor plate reader (Tecan, Männedorf, Switzerland). A reference for oxidation at the cellular level was defined based on a low fluorescence intensity of untreated control cells (cells treated with PBS but not treated with a test product or AAPH). A positive control for cellular oxidative damage was defined as red blood cells exposed to AAPH alone under the absence of the antioxidant complex. […]

Solubility = format: physicochemical; details: powder introduced into physiological saline
Excerpt: The simple mixture is not preferable for a preparation method of the antioxidant complex according to the inventive concept.

solubility in physiological saline (Solubility): almost completely insoluble
Structure (SMILES): O=C1c2c(O)cc(O)cc2O[C@H](c2ccc(O)c(O)c2)[C@H]1O [dihydroquercetin powder, dihydroquercetin]
intracellular antioxidant capacity / cell protective capacity in CAP-e analysis (Human red blood cells): did not exhibit the intracellular antioxidant capacity

Reference: patent US20210030654A1, “ANTIOXIDANT COMPLEX AND COMPOSITION FOR FORMING SAME” (priority 2018, published 2021)
